Paper PMC5622171 (Nature Communications, 2017)

Key:
Experiment in all cases: KINOMEscan kinase profiling
Format in all cases: binding
EPHB4 = molecular target: T1, EPHB4 (Homo sapiens, UniProt P54760); details: read-out: %Inhibition by 10 μM SPA70
T1 construct: purchased DiscoverX (Ambit Biosciences) KINOMEscan
In short: (§1)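 KINOMEscan profiling followed a published protocol. Kinases whose inhibition exceeded a set cut-off were then tested in a dilution series beginning at 30 µM.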

FGFR1 = molecular target: T2, FGFR1 (Homo sapiens, UniProt P11362); details: read-out: %Inhibition by 10 μM SPA70
T2 construct: purchased DiscoverX (Ambit Biosciences) KINOMEscan
In short: as §1

MRCKA = molecular target: T3, MRCKA (Homo sapiens, UniProt Q5VT25); details: read-out: %Inhibition by 10 μM SPA70
T3 construct: purchased DiscoverX (Ambit Biosciences) KINOMEscan
In short: as §1

RIOK2 = molecular target: T4, RIOK2 (Homo sapiens, UniProt Q9BVS4); details: read-out: %Inhibition by 10 μM SPA70
T4 construct: purchased DiscoverX (Ambit Biosciences) KINOMEscan
In short: as §1

JNK1 = molecular target: T5, JNK1 (Homo sapiens, UniProt P45983)
T5 construct: purchased DiscoverX (Ambit Biosciences) KINOMEscan
In short: as §1

IKK-epsilon = molecular target: T6, IKK-epsilon (Homo sapiens, UniProt Q14164); details: read-out: %Inhibition by 10 μM SPA70
T6 construct: purchased DiscoverX (Ambit Biosciences) KINOMEscan
In short: as §1

MEK5 = molecular target: T7, MEK5 (Homo sapiens, UniProt Q13163); details: read-out: %Inhibition by 10 μM SPA70
T7 construct: purchased DiscoverX (Ambit Biosciences) KINOMEscan
T7 sequence (Q13163 whole entry): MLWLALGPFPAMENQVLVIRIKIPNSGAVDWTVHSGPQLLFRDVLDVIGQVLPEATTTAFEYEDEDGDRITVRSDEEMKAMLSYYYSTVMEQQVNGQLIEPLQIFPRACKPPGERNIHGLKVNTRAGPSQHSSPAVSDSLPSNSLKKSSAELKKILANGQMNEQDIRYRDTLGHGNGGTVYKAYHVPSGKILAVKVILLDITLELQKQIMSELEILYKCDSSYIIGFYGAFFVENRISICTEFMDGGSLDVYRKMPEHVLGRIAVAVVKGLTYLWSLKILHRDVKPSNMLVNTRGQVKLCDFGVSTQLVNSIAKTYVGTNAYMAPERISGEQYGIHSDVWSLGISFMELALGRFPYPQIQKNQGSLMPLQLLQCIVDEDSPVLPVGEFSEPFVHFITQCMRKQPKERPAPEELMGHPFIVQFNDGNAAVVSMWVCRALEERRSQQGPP
In short: as §1

CLK4 = molecular target: T8, CLK4 (Homo sapiens, UniProt Q9HAZ1); details: read-out: %Inhibition by 10 μM SPA70
T8 construct: purchased DiscoverX (Ambit Biosciences) KINOMEscan
In short: as §1

LYN = molecular target: T9, LYN (Homo sapiens, UniProt P07948); details: read-out: %Inhibition by 10 μM SPA70
T9 construct: purchased DiscoverX (Ambit Biosciences) KINOMEscan
In short: as §1

DAPK2 = molecular target: T10, DAPK2 (Homo sapiens, UniProt Q9UIK4); details: read-out: %Inhibition by 10 μM SPA70
T10 construct: purchased DiscoverX (Ambit Biosciences) KINOMEscan
In short: as §1

IGF1R = molecular target: T11, IGF1R (Homo sapiens, UniProt P08069); details: read-out: %Inhibition by 10 μM SPA70
T11 construct: purchased DiscoverX (Ambit Biosciences) KINOMEscan
In short: as §1

YANK2 = molecular target: T12, YANK2 (Homo sapiens, UniProt Q9NY57); details: read-out: %Inhibition by 10 μM SPA70
T12 construct: purchased DiscoverX (Ambit Biosciences) KINOMEscan
In short: as §1

PYK2 = molecular target: T13, PYK2 (Homo sapiens, UniProt Q14289); details: read-out: %Inhibition by 10 μM SPA70
T13 construct: purchased DiscoverX (Ambit Biosciences) KINOMEscan
In short: as §1

FRK = molecular target: T14, FRK (Homo sapiens, UniProt P42685); details: read-out: %Inhibition by 10 μM SPA70
T14 construct: purchased DiscoverX (Ambit Biosciences) KINOMEscan
In short: as §1

SNARK = molecular target: T15, SNARK (Homo sapiens, UniProt Q9H093)
T15 construct: purchased DiscoverX (Ambit Biosciences) KINOMEscan
In short: as §1

CAMK2B = molecular target: T16, CAMK2B (Homo sapiens, UniProt Q13554); details: read-out: %Inhibition by 10 μM SPA70
T16 construct: purchased DiscoverX (Ambit Biosciences) KINOMEscan
In short: as §1

MERTK = molecular target: T17, MERTK (Homo sapiens, UniProt Q12866); details: read-out: %Inhibition by 10 μM SPA70
T17 construct: purchased DiscoverX (Ambit Biosciences) KINOMEscan
In short: as §1

[1] = molecular target: T18, RSK1(Kin.Dom.1-N-terminal) (Homo sapiens, UniProt Q15418); details: read-out: %Inhibition by 10 μM SPA70
T18 construct: RSK1(Kin.Dom.1-N-terminal); purchased DiscoverX (Ambit Biosciences) KINOMEscan
In short: as §1

PRKX = molecular target: T19, PRKX (Homo sapiens, UniProt P51817); details: read-out: %Inhibition by 10 μM SPA70
T19 construct: purchased DiscoverX (Ambit Biosciences) KINOMEscan
T19 sequence (P51817 whole entry): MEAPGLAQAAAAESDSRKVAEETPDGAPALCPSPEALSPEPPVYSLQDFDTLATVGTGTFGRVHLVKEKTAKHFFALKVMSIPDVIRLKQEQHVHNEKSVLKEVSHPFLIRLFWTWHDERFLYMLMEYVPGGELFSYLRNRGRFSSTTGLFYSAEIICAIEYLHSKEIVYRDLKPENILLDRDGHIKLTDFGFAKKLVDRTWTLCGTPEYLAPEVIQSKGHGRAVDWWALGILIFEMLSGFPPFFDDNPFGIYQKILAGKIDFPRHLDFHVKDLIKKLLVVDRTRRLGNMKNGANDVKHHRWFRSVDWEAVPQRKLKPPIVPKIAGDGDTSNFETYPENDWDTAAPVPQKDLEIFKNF
In short: as §1

NLK = molecular target: T20, NLK (Homo sapiens, UniProt Q9UBE8); details: read-out: %Inhibition by 10 μM SPA70
T20 construct: purchased DiscoverX (Ambit Biosciences) KINOMEscan
In short: as §1

PRP4 = molecular target: T21, PRP4 (Homo sapiens, UniProt Q13523); details: read-out: %Inhibition by 10 μM SPA70
T21 construct: purchased DiscoverX (Ambit Biosciences) KINOMEscan
In short: as §1

EPHA5 = molecular target: T22, EPHA5 (Homo sapiens, UniProt P54756)
T22 construct: purchased DiscoverX (Ambit Biosciences) KINOMEscan
In short: as §1

CLK1 = molecular target: T23, CLK1 (Homo sapiens, UniProt P49759); details: read-out: %Inhibition by 10 μM SPA70
T23 construct: purchased DiscoverX (Ambit Biosciences) KINOMEscan
In short: as §1

TLK1 = molecular target: T24, TLK1 (Homo sapiens, UniProt Q9UKI8); details: read-out: %Inhibition by 10 μM SPA70
T24 construct: purchased DiscoverX (Ambit Biosciences) KINOMEscan
In short: as §1

BMPR1A = molecular target: T25, BMPR1A (Homo sapiens, UniProt P36894); details: read-out: %Inhibition by 10 μM SPA70
T25 construct: purchased DiscoverX (Ambit Biosciences) KINOMEscan
In short: as §1

AMPK-alpha1 = molecular target: T26, AMPK-alpha1 (Homo sapiens, UniProt Q13131); details: read-out: %Inhibition by 10 μM SPA70
T26 construct: purchased DiscoverX (Ambit Biosciences) KINOMEscan
In short: as §1

MLK2 = molecular target: T27, MLK2 (Homo sapiens, UniProt Q02779); details: read-out: %Inhibition by 10 μM SPA70
T27 construct: purchased DiscoverX (Ambit Biosciences) KINOMEscan
T27 sequence (Q02779 whole entry): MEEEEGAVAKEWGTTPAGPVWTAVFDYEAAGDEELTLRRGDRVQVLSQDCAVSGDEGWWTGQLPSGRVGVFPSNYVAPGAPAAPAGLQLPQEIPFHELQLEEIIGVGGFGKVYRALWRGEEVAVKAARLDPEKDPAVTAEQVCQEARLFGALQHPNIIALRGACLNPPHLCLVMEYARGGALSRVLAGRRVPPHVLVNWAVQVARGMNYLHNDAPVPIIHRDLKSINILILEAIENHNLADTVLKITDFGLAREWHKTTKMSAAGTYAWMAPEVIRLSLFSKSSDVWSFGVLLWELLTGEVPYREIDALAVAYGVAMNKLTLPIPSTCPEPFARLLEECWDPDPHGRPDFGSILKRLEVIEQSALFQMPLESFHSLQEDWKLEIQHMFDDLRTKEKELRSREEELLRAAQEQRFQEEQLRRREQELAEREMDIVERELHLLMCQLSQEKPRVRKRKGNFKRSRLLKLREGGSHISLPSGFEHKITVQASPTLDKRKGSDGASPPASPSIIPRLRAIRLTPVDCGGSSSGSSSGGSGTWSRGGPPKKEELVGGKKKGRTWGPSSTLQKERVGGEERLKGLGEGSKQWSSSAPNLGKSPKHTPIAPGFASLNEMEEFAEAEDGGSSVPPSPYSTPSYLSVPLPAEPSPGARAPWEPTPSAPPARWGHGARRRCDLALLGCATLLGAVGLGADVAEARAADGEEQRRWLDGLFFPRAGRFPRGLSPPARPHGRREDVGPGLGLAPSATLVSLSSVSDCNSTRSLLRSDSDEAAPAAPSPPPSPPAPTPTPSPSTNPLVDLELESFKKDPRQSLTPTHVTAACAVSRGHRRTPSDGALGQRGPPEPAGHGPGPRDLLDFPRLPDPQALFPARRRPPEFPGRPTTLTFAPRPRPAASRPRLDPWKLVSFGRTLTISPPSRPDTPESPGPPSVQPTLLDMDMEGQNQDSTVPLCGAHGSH
In short: as §1

TSSK1B = molecular target: T28, TSSK1B (Homo sapiens, UniProt Q9BXA7); details: read-out: %Inhibition by 10 μM SPA70
T28 construct: purchased DiscoverX (Ambit Biosciences) KINOMEscan
In short: as §1

PIP5K2B = molecular target: T29, PIP5K2B (Homo sapiens, UniProt P78356); details: read-out: %Inhibition by 10 μM SPA70
T29 construct: purchased DiscoverX (Ambit Biosciences) KINOMEscan
In short: as §1

ABL1-phosphorylated = molecular target: T30, ABL1-phosphorylated (Homo sapiens, UniProt P00519); details: read-out: %Inhibition by 10 μM SPA70
T30 construct: purchased DiscoverX (Ambit Biosciences) KINOMEscan
In short: as §1

DCAMKL1 = molecular target: T31, DCAMKL1 (Homo sapiens, UniProt O15075)
T31 construct: purchased DiscoverX (Ambit Biosciences) KINOMEscan
In short: as §1

PIK4CB = molecular target: T32, PIK4CB (Homo sapiens, UniProt Q9UBF8); details: read-out: %Inhibition by 10 μM SPA70
T32 construct: purchased DiscoverX (Ambit Biosciences) KINOMEscan
In short: as §1

CAMK2A = molecular target: T33, CAMK2A (Homo sapiens, UniProt Q9UQM7); details: read-out: %Inhibition by 10 μM SPA70
T33 construct: purchased DiscoverX (Ambit Biosciences) KINOMEscan
In short: as §1

RIPK4 = molecular target: T34, RIPK4 (Homo sapiens, UniProt P57078); details: read-out: %Inhibition by 10 μM SPA70
T34 construct: purchased DiscoverX (Ambit Biosciences) KINOMEscan
T34 sequence (P57078 whole entry): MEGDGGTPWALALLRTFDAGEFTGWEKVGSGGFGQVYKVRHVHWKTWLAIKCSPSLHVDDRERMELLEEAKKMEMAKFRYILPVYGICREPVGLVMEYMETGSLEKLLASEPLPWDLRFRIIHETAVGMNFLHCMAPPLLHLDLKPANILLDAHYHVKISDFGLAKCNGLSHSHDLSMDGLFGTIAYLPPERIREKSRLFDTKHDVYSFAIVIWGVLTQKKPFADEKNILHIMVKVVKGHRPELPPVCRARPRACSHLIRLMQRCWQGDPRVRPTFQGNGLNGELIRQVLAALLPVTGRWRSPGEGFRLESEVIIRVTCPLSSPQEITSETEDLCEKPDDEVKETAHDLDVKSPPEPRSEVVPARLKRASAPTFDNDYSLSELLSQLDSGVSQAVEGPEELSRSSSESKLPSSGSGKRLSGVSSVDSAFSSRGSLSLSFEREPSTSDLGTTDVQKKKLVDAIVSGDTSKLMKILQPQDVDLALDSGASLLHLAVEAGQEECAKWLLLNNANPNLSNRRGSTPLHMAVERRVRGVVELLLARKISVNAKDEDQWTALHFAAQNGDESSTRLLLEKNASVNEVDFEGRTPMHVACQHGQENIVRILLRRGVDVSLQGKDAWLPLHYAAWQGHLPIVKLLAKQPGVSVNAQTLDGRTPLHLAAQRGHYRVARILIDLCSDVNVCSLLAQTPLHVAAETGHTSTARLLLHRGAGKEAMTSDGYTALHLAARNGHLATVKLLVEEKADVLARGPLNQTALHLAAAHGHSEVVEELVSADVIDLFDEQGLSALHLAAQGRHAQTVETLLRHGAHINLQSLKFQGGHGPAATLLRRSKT
In short: as §1

ROCK1 = molecular target: T35, ROCK1 (Homo sapiens, UniProt Q13464); details: read-out: %Inhibition by 10 μM SPA70
T35 construct: purchased DiscoverX (Ambit Biosciences) KINOMEscan
T35 sequence (Q13464 whole entry): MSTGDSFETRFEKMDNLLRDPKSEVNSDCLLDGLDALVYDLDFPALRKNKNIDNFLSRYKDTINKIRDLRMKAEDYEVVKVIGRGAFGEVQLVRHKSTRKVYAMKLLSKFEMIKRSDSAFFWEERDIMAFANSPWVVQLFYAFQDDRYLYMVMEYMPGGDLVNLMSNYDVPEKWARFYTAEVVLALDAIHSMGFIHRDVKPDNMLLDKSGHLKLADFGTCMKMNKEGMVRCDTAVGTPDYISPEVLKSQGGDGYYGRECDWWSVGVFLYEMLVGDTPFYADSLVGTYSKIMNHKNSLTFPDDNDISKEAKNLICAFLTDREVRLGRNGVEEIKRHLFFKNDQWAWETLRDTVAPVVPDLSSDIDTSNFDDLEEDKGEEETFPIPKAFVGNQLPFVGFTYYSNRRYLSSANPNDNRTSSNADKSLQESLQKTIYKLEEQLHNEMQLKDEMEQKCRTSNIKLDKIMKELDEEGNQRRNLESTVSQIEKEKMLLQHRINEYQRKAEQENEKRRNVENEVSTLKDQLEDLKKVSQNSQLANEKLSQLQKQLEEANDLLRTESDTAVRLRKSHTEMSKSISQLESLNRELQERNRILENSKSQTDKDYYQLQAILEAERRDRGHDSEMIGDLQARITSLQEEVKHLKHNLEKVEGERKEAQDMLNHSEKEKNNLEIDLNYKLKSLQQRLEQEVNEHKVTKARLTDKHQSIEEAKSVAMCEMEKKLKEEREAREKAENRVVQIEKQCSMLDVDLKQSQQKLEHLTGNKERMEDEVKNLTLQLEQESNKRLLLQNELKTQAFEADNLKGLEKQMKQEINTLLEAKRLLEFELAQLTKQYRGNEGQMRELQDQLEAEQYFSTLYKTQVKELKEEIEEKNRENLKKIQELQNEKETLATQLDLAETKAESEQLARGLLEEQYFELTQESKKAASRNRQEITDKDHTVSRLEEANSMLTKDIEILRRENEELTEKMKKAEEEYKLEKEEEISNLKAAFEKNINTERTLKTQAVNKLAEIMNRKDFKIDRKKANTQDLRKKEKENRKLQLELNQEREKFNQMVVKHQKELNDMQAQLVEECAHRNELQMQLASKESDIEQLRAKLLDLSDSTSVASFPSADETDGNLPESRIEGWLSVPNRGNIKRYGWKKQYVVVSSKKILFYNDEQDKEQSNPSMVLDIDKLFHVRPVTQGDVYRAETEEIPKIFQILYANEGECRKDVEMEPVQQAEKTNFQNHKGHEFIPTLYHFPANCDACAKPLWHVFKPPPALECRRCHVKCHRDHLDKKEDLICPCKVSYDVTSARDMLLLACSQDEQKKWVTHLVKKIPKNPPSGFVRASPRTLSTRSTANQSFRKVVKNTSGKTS
In short: as §1

T1 sequence (P54760 16-987): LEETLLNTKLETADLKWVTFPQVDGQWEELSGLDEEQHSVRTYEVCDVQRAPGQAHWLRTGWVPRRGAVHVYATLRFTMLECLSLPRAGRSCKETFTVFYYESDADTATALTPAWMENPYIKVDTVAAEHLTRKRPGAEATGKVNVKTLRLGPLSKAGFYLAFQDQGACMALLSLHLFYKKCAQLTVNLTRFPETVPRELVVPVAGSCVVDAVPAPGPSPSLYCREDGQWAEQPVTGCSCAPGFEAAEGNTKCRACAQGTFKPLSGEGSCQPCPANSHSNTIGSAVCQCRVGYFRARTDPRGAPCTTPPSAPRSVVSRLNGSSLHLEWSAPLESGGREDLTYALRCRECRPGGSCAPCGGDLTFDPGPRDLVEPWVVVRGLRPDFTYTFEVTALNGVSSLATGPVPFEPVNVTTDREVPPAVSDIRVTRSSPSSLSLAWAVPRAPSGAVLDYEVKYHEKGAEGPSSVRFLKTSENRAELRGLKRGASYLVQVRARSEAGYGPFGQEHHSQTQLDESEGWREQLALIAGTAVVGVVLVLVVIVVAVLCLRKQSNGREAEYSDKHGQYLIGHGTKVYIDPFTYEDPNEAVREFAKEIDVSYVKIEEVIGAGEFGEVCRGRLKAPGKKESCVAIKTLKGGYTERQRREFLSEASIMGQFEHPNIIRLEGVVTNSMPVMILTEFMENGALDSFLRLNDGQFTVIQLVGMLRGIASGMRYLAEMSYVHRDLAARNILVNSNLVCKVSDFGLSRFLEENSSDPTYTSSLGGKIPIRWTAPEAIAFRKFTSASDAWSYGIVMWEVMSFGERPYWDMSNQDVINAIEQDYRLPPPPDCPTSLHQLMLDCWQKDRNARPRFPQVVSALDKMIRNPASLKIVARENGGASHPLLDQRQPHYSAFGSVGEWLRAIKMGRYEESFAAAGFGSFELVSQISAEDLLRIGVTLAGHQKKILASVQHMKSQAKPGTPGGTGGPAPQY

COc1ccc(OC)c(-n2nnc(S(=O)(=O)c3ccc(C(C)(C)C)cc3)c2C)c1 [SPA70]
inhibition at 10 µM (EPHB4): 0%
inhibition at 10 µM (FGFR1): 0%
inhibition at 10 µM (MRCKA): 0%
inhibition at 10 µM (RIOK2): 0%
%Inhibition by 10 μM SPA70 (JNK1): 9%
inhibition at 10 µM (IKK-epsilon): 0%
inhibition at 10 µM (MEK5): 8%
inhibition at 10 µM (CLK4): 4%
inhibition at 10 µM (LYN): 0%
inhibition at 10 µM (DAPK2): 0%
inhibition at 10 µM (IGF1R): 0%
inhibition at 10 µM (YANK2): 0%
inhibition at 10 µM (PYK2): 2%
inhibition at 10 µM (FRK): 0%
%Inhibition by 10 μM SPA70 (SNARK): 8%
inhibition at 10 µM (CAMK2B): 13%
inhibition at 10 µM (MERTK): 0%
inhibition at 10 µM [1]: 40%
inhibition at 10 µM (PRKX): 8%
inhibition at 10 µM (NLK): 16%
inhibition at 10 µM (PRP4): 0%
%Inhibition by 10 μM SPA70 (EPHA5): 0%
inhibition at 10 µM (CLK1): 0%
inhibition at 10 µM (TLK1): 23%
inhibition at 10 µM (BMPR1A): 2%
inhibition at 10 µM (AMPK-alpha1): 0%
inhibition at 10 µM (MLK2): 0%
inhibition at 10 µM (TSSK1B): 0%
inhibition at 10 µM (PIP5K2B): 0%
inhibition at 10 µM (ABL1-phosphorylated): 19%
%Inhibition by 10 μM SPA70 (DCAMKL1): 0%
inhibition at 10 µM (PIK4CB): 27%
inhibition at 10 µM (CAMK2A): 0%
inhibition at 10 µM (RIPK4): 0%
inhibition at 10 µM (ROCK1): 3%
